Data taken from patent US12357604B2, “Topical formulations of cannabinoids and use thereof in the treatment of pain” (INMED PHARMACEUTICALS INC., priority 2017, dated 2025).
Entries after “also recorded” stand apart in the source; their conditions may differ.

B1: NGF: nerve growth factor (Sigma) injected into masseter muscle to induce mechanical sensitization (protein, UniProt P01139 122-241, looked up)
Beta-nerve growth factor: SSTHPVFHMGEFSVCDSVSVWVGDKTTATDIKGKEVTVLAEVNINNSVFRQYFFETKCRASNPVESGCRGIDSKHWNSYCTTTHTFVKALTTDEKQAAWRFIRIDTACVCVLSRKATRRG

What was measured:
[1] = system: masseter muscle mechanoreceptors; test: In vivo electrophysiology: mechanical threshold of mechanoreceptors; set-up: species or system Sprague-Dawley rats; settings: for MT of masseter muscle mechanoreceptors on co-administration of THC with CB1 or CB2 antagonist: THC 1 mg/ml with AM251 or AM630 (1:0.5 and 1:1 mg/ml), intramuscular; for MT of masseter muscle mechanoreceptors: anesthetized rats, MT at 10, 30, 60, 120 min, 6 mechanoreceptors/group
Description: In vivo electrophysiology recordings of single ganglion neurons that innervate the craniofacial muscles were performed to investigate the mechanism of action of peripherally injected cannabinoids. Rats (n=6/group) from the behavioral experiments were used for subsequent in vivo electrophysiological experiments. Recordings were performed at least 7 days after the behavioral experiments and experiments were conducted on the PBS-injected masseter muscles (right side) of the rats to minimize potential residual effects of the previous cannabinoid treatments.
Rats were anesthetized with isoflurane (2-2.5% in oxygen 97-98%; AErrane; Baxter) and surgically prepared for electrophysiological recording. Heart rate, blood pressure and body temperature were monitored and a trachea tube was inserted for ventilation throughout the experiment. The hair of the face was shaved and the animal's head was positioned in a stereotaxic frame.
A parylene-coated tungsten microelectrode (0.10″, 2 MΩ, A-M Systems Inc.) was lowered into the trigeminal ganglion through the brain via a small trephination in the skull. An incision was made over the neck to expose the brain stem, and the dura was removed to allow access for a stimulating electrode to contact the caudal brain stem. Mechanoreceptors innervating craniofacial muscles (masseter and temporalis) were identified by mechanical probing using a fine-tipped cotton swab. Antidromic collisions were performed to confirm projection of the muscle fiber to the caudal brain stem (16, 30).
A stimulating electrode (parylene-coated tungsten microelectrode, 0.10″, 2 MΩ, A-M Systems Inc.) was lowered into the ipsilateral caudal brainstem and a constant-current electrical stimulus (100 μs biphasic pulse, 10-90 μA, 0.5 Hz) was applied to evoke antidromic action potentials. Orthodromic action potentials were evoked by mechanical stimulation of the tissue. […] The straight line distance between the stimulating and recording electrodes was divided by the latency of the antidromic action potential to estimate conduction velocity. MT was assessed with an electronic von Frey hair (IITC Life Science) by applying mechanical stimuli at 1 min intervals for 10 min to obtain baseline threshold. After baseline measurement, treatment was administered and MT was reassessed at 10, 30, 60, and 120 minutes thereafter. At the end of the experiments, animals were euthanized with pentobarbital (Nembutal 100 mg/kg, Abbott Laboratories, Chicago, IL).
(§1) For the immunohistochemistry experiment, the frequency of expression of CB1, CB2 and TRPV1, respectively, in trigeminal ganglion neurons between NGF and vehicle-injected sides was analyzed with a paired Student's t-test. For the behavioral and electrophysiological experiments, MT from NGF and vehicle-injected sides was analyzed with a two-way repeated measures analysis of variance (ANOVA) with time and treatment as factors. Relative mechanical activation threshold (Rel MT) was calculated as 100×Post-treatment MT/Baseline MT. Post hoc Holm Sidak's multiple comparison tests were used to compare post injection mechanical thresholds between treatment groups at each time point. One-way repeated measures ANOVA on ranks was used to analyze test scores in the inverted screen tests. A probability level of 0.05 was considered significant for all tests. Error bars represented standard error of the mean.

[2] = system: NGF-induced sensitization in female rat masseter muscle; test: Behavioral mechanical threshold (electronic von Frey) of NGF-sensitized masseter muscle; format: in vivo, Sprague-Dawley rats; settings: for Effect on NGF-induced mechanical sensitization (masseter muscle mechanical threshold, MT): intramuscular injection 10 μl, into NGF-injected masseter 3 days after NGF, MT at 10, 30, 60, 120 min, n=6/group; for MT of contralateral masseter muscles: after intramuscular cannabinoid injection into the NGF-injected side (THC 1 mg/ml, CBD 5 mg/ml, CBN 1 mg/ml)
Source text: Female (259-350 g, n=55) Sprague-Dawley rats were used for all experiments. Animals were housed in groups of two with a 12-h light/dark cycle. Food and water were given ad libitum. All animal procedures were reviewed and approved by the University of British Columbia Animal Care Committee.
Appropriate volumes of each solution were evaporated under nitrogen gas, and subsequently re-solubilized with 4% Tween 80 in isotonic saline to final concentrations used for injection.
Three days before behavioral experiments, rats received an injection of NGF (25 μg/ml, 10 μl, Sigma, St. Louis, MO) or vehicle (phosphate buffered saline, PBS, 10 μl) into the left and right masseter muscles, respectively, under brief isoflurane anesthesia. […] This is accompanied by an increase in NMDA receptor expression in peripheral trigeminal ganglion neurons with a peak at three days after injection (15). […] The masseter muscle region was shaved prior to injection and the injection sites were marked with a permanent marker for subsequent identification. The concentration of NGF was selected based on the concentration used in previous human experimental pain studies and experiments in rats (15, 24, 25, 26, 27). The investigator was blinded to the identity of the treatment groups until after all data was collected.
MT was assessed with a rigid electronic von Frey hair (IITC Life Science, Woodland Hills, CA). Before NGF injection, rats were habituated to restraint in a towel. […] The mechanical test stimulus was applied at 1 min intervals for 5 min and the average was calculated for further analysis. MT was measured daily for 5 days prior to the start of the experiment to determine that measurements were stable. MT readings recorded prior to NGF injection were used as naïve baseline. […] On the test day, a post-NGF injection baseline (NGF baseline) was recorded before injection of cannabinoid treatment groups. After treatment injections, MT was measured at 10, 30, 60, and 120 min after injection.
as §1

[3] = system: impaired motor function in rats; test: Inverted screen test; format: in vivo, Sprague-Dawley rats; settings: after intramuscular injection; for Impairment of motor functions in the inverted screen tests: tested at 10, 30, 60 and 120 min, n=4/group; for Inverted screen test median score: score 0 climbed to top, 1 held on upside down, 2 fell
Description: A modified version of the inverted screen test was performed to evaluate impaired motor function in rats (28, 29). Rats (n=4/group) were placed on a screen (185 mm×290 mm) with 5 mm diameter holes and the screen was slowly inverted 180 degrees until the rats were suspended upside down on the bottom of the screen. […] The rats were trained how to perform the test daily for three days before they were tested.
as §1

[4] = system: mental nerve ligation model; test: Topical THC in mental nerve ligation model; format: in vivo, mice; settings: topical THC 1% in a PLO-gel cream base
Description: FIG. 14 illustrates the effect of topical THC (1%) in a mental nerve ligation model. Neuropathic pain behavior was measured by observing total facial grooming in naïve and post-surgical mice after application of vehicle or THC.
FIG. 15 illustrates the effect of topical THC (1%) in a mental nerve ligation model. Neuropathic pain behavior was measured by observing mechanical threshold response in naïve and post-surgical mice after application of vehicle or THC.

TRPV1 = test: Immunohistochemistry of masseter ganglion neurons after NGF injection: TRPV1; format: in vivo, Sprague-Dawley rats; settings: 3 days after NGF 25 μg/ml, 10 μl; n=5 rats
Description: (§2) To identify trigeminal ganglion neurons that innervate the masseter muscle, the fluorescent tracer dye Fast Blue (2%, Polysciences, Warrington, PA) was injected bilaterally into the masseter muscles of rats (n=5),7 days prior to euthanization. NGF (25 μg/ml, 10 μI, Sigma, St. Louis, MO) or vehicle (phosphate buffered saline, PBS, 10 μI) was injected into the left and right masseter muscles, respectively, three days before euthanization. Under deep isoflurane anesthesia, animals were perfused with 120 ml cold saline followed by 120 ml of paraformaldehyde (4%). Trigeminal ganglia and masseter muscles were removed, incubated in 20% and then 40% sucrose for 48h each to cryoprotect the tissue, and cut into 10 μm sections with a cryotome. […] Fast Blue positive cells were counted and photographed for estimation of cell diameter. […]
(§3) For the immunohistochemistry experiment, the frequency of expression of CB1, CB2 and TRPV1, respectively, in trigeminal ganglion neurons between NGF and vehicle-injected sides was analyzed with a paired Student's t-test. For the behavioral and electrophysiological experiments, MT from NGF and vehicle-injected sides was analyzed with a two-way repeated measures analysis of variance (ANOVA) with time and treatment as factors. Relative mechanical activation threshold (Rel MT) was calculated as 100×Post-treatment MT/Baseline MT. […]

CB1 = test: Immunohistochemistry of masseter ganglion neurons after NGF injection: CB1; format: in vivo, Sprague-Dawley rats; settings: 3 days after NGF 25 μg/ml, 10 μl; saline side 52±3%; n=5 rats
Description: as §2, §3

CB2 = test: Immunohistochemistry of masseter ganglion neurons after NGF injection: CB2; format: in vivo, Sprague-Dawley rats; settings: 3 days after NGF 25 μg/ml, 10 μl; saline side 47±5%; n=5 rats
Description: as §2, §3

[5] = intramuscular injection 1 mg/ml

Molecule | Effect on NGF-induced mechanical sensitization (masseter muscle mechanical threshold, MT) ([2]; 1 mg/ml) | Impairment of motor functions in the inverted screen tests [3] | Inverted screen test median score [3] | MT of masseter muscle mechanoreceptors [1, 5] | MT of contralateral masseter muscles [2] | other results
Cc1c(C(=O)NN2CCCCC2)nn(-c2ccc(Cl)cc2Cl)c1-c1ccc(I)cc1 [AM251, 1-(2,4-dichlorophenyl)-5-(4-iodophenyl)-4-methyl-N-1-piperidinyl-1H-pyrazole-3-carboxamide] | – | – | – | – | – | MT of masseter muscle mechanoreceptors on co-administration of THC with CB1 or CB2 antagonist [1]: attenuated the increase in MT mediated by THC alone
COc1ccc(C(=O)c2c(C)n(CCN3CCOCC3)c3cc(I)ccc23)cc1 [AM630, [6-iodo-2-methyl-1-[2-(4-morpholinyl)ethyl]-1H-indol-3-yl](4-methoxyphenyl)-methanone] | – | – | – | – | – | MT of masseter muscle mechanoreceptors on co-administration of THC with CB1 or CB2 antagonist [1]: not different from THC alone
CCCCCc1cc(O)c2c(c1)OC(C)(CCC=C(C)C)C=C2 (centres unmarked) [CBC, Cannabichromene] | No effect on MT | No impairment of motor functions | 0 | – | – | –
C=C(C)C1CCC(C)=CC1c1c(O)cc(CCCCC)cc1O (centres unmarked) [CBD, 2-(6-isopropenyl-3-methyl-2-cyclohexen-1-yl)-5-pentyl-1,3-benzenediol] | had no effect on NGF-induced mechanical sensitization | No impairment of motor functions | 0 | not 1 mg/ml, significantly increased MT | No change in mechanical threshold | MT of masseter muscle mechanoreceptors ([1]; intramuscular injection 5 mg/ml): significantly increased MT, 30 min after injection; also recorded: Significant differences; Effect on NGF-induced mechanical sensitization (masseter muscle mechanical threshold, MT) ([2]; 5 mg/ml): significantly reversed NGF-induced sensitization at 10 and 30 min after injection; also recorded: Significant differences
CCCCCc1cc(O)c2c(c1)OC(C)(C)c1ccc(C)cc1-2 [CBN, 6,6,9-trimethyl-3-pentylbenzo[c]chromen-1-ol] | significant increase in MT at 10 min after injection compared to NGF baseline; also recorded: Significant differences | No impairment of motor functions | 0 | significantly increased MT at 30 and 60 min after injection; also recorded: Significant differences | No change in mechanical threshold | Area under the curve (AUC) analysis of the electrophysiological data ([1]; AUC of MT data of FIGS. 9-12, compared to the other indicated treatments): reduction in pain response
CCCCCc1cc(O)c2c(c1)OC(C)(C)[C@@H]1CCC(C)=C[C@@H]21 [THC, delta-9-tetrahydrocannabinol] | significantly reversed NGF-induced sensitization at 10 and 30 min after injection; also recorded: Significant differences | No impairment of motor functions | 0 | significantly increased the MT of mechanoreceptors at 10, 30 and 60 min after injection; also recorded: Significant differences | No change in mechanical threshold | Mechanical allodynia in the lower lip skin (mechanical threshold response) [4]: reversed mechanical allodynia; Neuropathic pain behavior (facial grooming) [4]: reduced neuropathic pain behavior
B1 | – | – | – | – | – | Effect on TRPV1 expression in masseter ganglion neurons (TRPV1): No significant effect; Frequency of expression of CB1 in masseter ganglion neurons, NGF-injected side (CB1): 39±3%; Frequency of expression of CB2 in masseter ganglion neurons, NGF-injected side (CB2): 33±6%; Decrease of masseter muscle MT ([2]; 3 days after intramuscular injection of NGF 25 μg/ml, 10 μl): 31%
